This is an account of results in patent publication US20240156800A1, “EP300 DEGRADER AND USES THEREOF IN NEUROBLASTOMA” (DANA-FARBER CANCER INSTITUTE, INC., priority 2021, published 2024).

In series [1] the test system is Kelly NB cell xenografts. Put plainly: Kelly NB cell subcutaneous xenografts in NSG mice. The series is classed as in vivo. The conditions noted are these: 40 mg/Kg IP once or twice daily. How it is done: For tumor studies, eight-week-old female NSG™ mice (Jackson Laboratories) were subcutaneously implanted with 2.5×10^6 Kelly cells in 50% matrigel/PBS. Mice were assigned to three groups: vehicle (n=11), JQAD1 (40 mg/kg/day) (n=12) or JQAD1 (40 mg/kg, twice daily) (n=12) by IP injection. Treatment with small-molecule inhibitors was initiated once tumors engrafted and reached 100-150 mm^3. Mice were treated for 21 days and then followed for survival. Tumors were measured by calipers, and mice were weighed every three days. Animals were euthanized according to institutional guidelines when tumors reached […] in length or width, or if animals became moribund. Tumor sizes were compared at each time point by two-way ANOVA with post-hoc Tukey tests. Tumor growth curve kinetics were analyzed by both logistic regression and mixed-effects two-way ANOVA with post-hoc Tukey tests to determine whether growth kinetics differed between treatment groups.
Separately, eight animals were xenografted as described above, and treated with vehicle (n=4) or JQAD1 (n=4) at 40 mg/kg IP daily for 14 days. These animals were sacrificed at day 14, following which tumor was extracted, and divided for immunohistochemical analysis or analysis of RNA expression by RNA sequencing (RNA-seq).

Series [2] deals with H3K27ac. Put plainly: Western blotting of H3K27ac in treated NB cells. The series is classed as cell-based, human. The conditions noted are these: Kelly cells, 24 h. As for the experimental part:
(§1) Cells growing in culture were lysed for whole cell lysates as described in Durbin et al. Nat. Genet. 50:1240-1246 (2018) and Wang et al. Nat. Commun. 10:5622 (2019). Nuclear lysates were prepared using the NE-PER® nuclear lysate kit (Thermo Scientific™) according to the manufacturer's protocol. Chromatin lysates were prepared with the total histone extraction kit (Epigentek). Briefly, equivalent amounts of protein were resolved by western blotting using 4-12% Bis-Tris NuPAGE™ gels (Thermo-Fisher Scientific) prior to transfer, and immunoblotting using primary antibodies to: MYCN (1:1000, Cell Signaling Technology®), H3K27ac (1:1000, Abcam), total H3 (1:1000, Cell Signaling Technology®), EP300 (1:1000, Abcam), CBP (1:500, Cell Signaling Technology®), Cas9 (1:1000, Cell Signaling Technology®), cleaved-PARP1 (1:1000, Cell Signaling Technology), cleaved Caspase-3 (1:1000, Cell Signaling Technology®), β-actin (1:1000, Cell Signaling Technology®), GATA3 (1:1000, EMD Millipore™), TFAP2β (1:1000, Cell Signaling Technology®), Vinculin (1:1000, EMD Millipore™), CRBN (1:1000, Cell Signaling Technology®), HAND2 (1:1000, Santa Cruz Biotechnology). Secondary antibodies were horseradish peroxidase (HRP)-conjugated anti-rabbit or anti-mouse (1:5000, Santa Cruz Biotechnology), incubated prior to exposure to enhanced chemiluminescence reagents (GE, Amersham). For immunoprecipitation, equal amounts of protein were diluted in buffer C as described in Mansour et al. Science 346:1373-1377 (2014) and incubated with antibodies covalently conjugated to Dynabeads™ M-270 beads (Thermo-Fisher Scientific) overnight according to the manufacturer's directions. Antibodies used included: H3K27ac, EP300 (Abcam), CBP, TFAP2β (Cell Signaling Technology®), rabbit immunoglobulin G (IgG) (Santa Cruz Biotechnology®). Immunoprecipitated protein was isolated as per the manufacturer's directions and subjected to western blotting, as described above, or mass spectrometry.

The target in series [3] is T1, CBP (Homo sapiens, UniProt Q92793).
T1 construct: Cells growing in culture were lysed for whole cell lysates; endogenous in cells; host or cells: Kelly, NGP, SIMA, BE2C neuroblastoma cells; Kelly xenografts in NSG mice
The series is described as follows: Immunohistochemistry of CBP in Kelly cell xenografts. The settings on record: 40 mg/Kg once daily. The series is classed as in vivo. As for the experimental part:
Separately, eight animals were xenografted as described above, and treated with vehicle (n=4) or JQAD1 (n=4) at 40 mg/kg IP daily for 14 days. These animals were sacrificed at day 14, following which tumor was extracted, and divided for immunohistochemical analysis or analysis of RNA expression by RNA sequencing (RNA-seq). Immunohistochemistry was performed on the Leica® Bond™ III automated staining platform. Antibody EP300 from Cell Signaling Technology®, catalog number 86377, clone D8Z4E, was run at 1:50 dilution using the Leica® Biosystems Refine Detection Kit with citrate antigen retrieval. Antibody KAT3A/CBP (catalog number ab2832, polyclonal, Abcam) was run at 1:200 using the Leica® Biosystems Refine Detection Kit with ethylenediaminetetraacetic acid (EDTA) antigen retrieval.

The subject of series [4] is MYCN. Put plainly: Western blotting of MYCN (whole lysates and chromatin extracts). The series is classed as cell-based, human. The settings on record: Kelly cells, 0.5 and 1 μM, 24 h, chromatin extracts. How it is done:
as §1
A general note: Immunoblotting shows a protein as a band on a membrane.

The target in series [5] is T2, EP300 (Mus musculus, UniProt B2RWS6).
T2 construct: from tissue; host or cells: liver of Balb/c Crbn^ILE391VAL knock-in mice
Put plainly: Immunohistochemistry of EP300 in liver of Crbn ILE391VAL knockin mice. The series is classed as in vivo. The conditions noted are these: 40 mg/Kg IP daily, 14 days. How it is done: For toxicity studies, four female CD1 mice (Charles River Laboratories) were injected intraperitoneally (IP) with single doses of 10 mg/Kg (R,S)-JQAD1 solubilized in 10% hydroxypropyl β-cyclodextrin (Sigma-Aldrich®) in sterile water. Following injection, blood concentration of (R,S)-JQAD1 was measured by serial measurements of animal serum at time points out to 24 h, by liquid chromatography with tandem mass spectrometry (LC-MS/MS) analysis. Pharmacokinetics were performed at ChemPartner in Shanghai, China, using LC-MS/MS method and pharmacokinetics parameters (Tmax, Cmax, T1/2, AUC, etc.) calculated with WinNonlin® V 6.2 statistics software (Pharsight Corporation) using a noncompartmental model. For maximally tolerated dose (MTD) testing, six female CD1 mice were treated with daily IP doses of (R,S)-JQAD1 at 10, 20, or 40 mg/kg. Animals were monitored for animal weight, grooming and behavior daily without noted effects. […] Animal weights, behavior and grooming were monitored daily, for a total of 21 days. […] Blood samples were obtained by retro-orbital puncture and blood analyzed at the Small Animal Imaging Facility at Beth Israel Deaconess Medical Center (Boston, MA), on a Hemavet® 9500FS (Drew Scientific) for blood counts, creatinine, AST, ALT, ALP, GGTP, and BUN measurements. […]

SMILES strings stand for the structures. Entries after “also recorded” stand apart in the source; their conditions may differ.

T1 sequence (Q92793 whole entry): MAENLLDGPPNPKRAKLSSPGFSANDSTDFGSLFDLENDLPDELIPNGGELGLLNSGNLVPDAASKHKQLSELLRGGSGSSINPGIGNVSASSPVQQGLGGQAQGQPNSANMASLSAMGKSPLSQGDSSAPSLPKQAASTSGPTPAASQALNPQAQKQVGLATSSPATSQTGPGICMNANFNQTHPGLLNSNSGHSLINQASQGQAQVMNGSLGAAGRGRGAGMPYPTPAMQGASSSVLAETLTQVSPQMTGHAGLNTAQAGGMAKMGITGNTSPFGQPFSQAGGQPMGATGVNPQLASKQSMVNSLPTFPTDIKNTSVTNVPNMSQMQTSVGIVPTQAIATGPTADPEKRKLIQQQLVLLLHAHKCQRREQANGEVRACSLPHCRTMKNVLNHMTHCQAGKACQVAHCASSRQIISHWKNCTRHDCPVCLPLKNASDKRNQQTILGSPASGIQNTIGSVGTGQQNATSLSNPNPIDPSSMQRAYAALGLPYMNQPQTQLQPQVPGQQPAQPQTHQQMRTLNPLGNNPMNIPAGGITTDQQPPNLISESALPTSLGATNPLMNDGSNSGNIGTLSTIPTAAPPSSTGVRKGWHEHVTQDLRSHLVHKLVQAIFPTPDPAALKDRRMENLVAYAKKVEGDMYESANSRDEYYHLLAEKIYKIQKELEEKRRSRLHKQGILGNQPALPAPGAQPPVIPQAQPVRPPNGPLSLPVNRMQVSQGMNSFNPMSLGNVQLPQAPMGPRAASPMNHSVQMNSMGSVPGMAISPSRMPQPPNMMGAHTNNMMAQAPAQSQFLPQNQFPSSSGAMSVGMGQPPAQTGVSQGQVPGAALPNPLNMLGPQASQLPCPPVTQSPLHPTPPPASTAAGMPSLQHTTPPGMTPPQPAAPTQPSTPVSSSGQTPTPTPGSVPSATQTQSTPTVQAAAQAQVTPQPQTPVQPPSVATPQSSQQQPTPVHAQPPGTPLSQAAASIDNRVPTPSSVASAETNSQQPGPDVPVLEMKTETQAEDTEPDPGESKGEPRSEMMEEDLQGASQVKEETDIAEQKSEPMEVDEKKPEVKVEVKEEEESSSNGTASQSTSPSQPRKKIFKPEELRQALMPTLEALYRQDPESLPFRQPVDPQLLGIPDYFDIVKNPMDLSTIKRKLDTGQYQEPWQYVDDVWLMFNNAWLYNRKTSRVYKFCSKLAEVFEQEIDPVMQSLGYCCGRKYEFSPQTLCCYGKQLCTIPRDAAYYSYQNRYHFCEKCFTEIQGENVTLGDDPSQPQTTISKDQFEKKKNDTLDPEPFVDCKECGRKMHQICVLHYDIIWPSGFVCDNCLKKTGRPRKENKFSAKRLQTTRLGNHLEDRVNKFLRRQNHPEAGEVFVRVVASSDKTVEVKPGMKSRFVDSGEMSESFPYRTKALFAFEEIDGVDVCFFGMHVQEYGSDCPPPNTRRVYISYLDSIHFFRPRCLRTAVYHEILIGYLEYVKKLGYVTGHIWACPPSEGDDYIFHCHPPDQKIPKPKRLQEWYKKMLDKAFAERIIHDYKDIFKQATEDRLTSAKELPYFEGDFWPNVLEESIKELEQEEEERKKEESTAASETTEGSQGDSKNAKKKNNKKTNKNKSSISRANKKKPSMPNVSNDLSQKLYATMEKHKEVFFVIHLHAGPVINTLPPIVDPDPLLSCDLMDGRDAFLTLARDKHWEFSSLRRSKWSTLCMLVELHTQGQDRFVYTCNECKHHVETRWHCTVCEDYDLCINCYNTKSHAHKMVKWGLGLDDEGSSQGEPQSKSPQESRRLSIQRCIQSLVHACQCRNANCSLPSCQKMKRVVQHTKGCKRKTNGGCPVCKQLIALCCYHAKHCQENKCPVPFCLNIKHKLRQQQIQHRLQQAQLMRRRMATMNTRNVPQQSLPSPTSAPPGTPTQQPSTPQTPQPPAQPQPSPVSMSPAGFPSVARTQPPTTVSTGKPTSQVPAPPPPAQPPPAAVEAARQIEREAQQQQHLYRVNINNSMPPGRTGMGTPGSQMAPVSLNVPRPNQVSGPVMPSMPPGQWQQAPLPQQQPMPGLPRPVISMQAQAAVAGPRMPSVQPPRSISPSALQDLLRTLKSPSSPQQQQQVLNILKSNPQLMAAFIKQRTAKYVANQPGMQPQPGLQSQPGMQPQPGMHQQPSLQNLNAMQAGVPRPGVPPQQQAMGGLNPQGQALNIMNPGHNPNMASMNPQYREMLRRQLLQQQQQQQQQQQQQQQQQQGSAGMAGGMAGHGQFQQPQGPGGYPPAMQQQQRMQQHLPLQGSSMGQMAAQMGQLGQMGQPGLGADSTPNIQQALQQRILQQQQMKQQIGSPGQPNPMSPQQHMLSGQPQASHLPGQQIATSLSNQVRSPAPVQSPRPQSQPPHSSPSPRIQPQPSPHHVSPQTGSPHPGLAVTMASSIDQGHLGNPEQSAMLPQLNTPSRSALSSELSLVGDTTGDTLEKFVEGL
T2 sequence (B2RWS6 whole entry): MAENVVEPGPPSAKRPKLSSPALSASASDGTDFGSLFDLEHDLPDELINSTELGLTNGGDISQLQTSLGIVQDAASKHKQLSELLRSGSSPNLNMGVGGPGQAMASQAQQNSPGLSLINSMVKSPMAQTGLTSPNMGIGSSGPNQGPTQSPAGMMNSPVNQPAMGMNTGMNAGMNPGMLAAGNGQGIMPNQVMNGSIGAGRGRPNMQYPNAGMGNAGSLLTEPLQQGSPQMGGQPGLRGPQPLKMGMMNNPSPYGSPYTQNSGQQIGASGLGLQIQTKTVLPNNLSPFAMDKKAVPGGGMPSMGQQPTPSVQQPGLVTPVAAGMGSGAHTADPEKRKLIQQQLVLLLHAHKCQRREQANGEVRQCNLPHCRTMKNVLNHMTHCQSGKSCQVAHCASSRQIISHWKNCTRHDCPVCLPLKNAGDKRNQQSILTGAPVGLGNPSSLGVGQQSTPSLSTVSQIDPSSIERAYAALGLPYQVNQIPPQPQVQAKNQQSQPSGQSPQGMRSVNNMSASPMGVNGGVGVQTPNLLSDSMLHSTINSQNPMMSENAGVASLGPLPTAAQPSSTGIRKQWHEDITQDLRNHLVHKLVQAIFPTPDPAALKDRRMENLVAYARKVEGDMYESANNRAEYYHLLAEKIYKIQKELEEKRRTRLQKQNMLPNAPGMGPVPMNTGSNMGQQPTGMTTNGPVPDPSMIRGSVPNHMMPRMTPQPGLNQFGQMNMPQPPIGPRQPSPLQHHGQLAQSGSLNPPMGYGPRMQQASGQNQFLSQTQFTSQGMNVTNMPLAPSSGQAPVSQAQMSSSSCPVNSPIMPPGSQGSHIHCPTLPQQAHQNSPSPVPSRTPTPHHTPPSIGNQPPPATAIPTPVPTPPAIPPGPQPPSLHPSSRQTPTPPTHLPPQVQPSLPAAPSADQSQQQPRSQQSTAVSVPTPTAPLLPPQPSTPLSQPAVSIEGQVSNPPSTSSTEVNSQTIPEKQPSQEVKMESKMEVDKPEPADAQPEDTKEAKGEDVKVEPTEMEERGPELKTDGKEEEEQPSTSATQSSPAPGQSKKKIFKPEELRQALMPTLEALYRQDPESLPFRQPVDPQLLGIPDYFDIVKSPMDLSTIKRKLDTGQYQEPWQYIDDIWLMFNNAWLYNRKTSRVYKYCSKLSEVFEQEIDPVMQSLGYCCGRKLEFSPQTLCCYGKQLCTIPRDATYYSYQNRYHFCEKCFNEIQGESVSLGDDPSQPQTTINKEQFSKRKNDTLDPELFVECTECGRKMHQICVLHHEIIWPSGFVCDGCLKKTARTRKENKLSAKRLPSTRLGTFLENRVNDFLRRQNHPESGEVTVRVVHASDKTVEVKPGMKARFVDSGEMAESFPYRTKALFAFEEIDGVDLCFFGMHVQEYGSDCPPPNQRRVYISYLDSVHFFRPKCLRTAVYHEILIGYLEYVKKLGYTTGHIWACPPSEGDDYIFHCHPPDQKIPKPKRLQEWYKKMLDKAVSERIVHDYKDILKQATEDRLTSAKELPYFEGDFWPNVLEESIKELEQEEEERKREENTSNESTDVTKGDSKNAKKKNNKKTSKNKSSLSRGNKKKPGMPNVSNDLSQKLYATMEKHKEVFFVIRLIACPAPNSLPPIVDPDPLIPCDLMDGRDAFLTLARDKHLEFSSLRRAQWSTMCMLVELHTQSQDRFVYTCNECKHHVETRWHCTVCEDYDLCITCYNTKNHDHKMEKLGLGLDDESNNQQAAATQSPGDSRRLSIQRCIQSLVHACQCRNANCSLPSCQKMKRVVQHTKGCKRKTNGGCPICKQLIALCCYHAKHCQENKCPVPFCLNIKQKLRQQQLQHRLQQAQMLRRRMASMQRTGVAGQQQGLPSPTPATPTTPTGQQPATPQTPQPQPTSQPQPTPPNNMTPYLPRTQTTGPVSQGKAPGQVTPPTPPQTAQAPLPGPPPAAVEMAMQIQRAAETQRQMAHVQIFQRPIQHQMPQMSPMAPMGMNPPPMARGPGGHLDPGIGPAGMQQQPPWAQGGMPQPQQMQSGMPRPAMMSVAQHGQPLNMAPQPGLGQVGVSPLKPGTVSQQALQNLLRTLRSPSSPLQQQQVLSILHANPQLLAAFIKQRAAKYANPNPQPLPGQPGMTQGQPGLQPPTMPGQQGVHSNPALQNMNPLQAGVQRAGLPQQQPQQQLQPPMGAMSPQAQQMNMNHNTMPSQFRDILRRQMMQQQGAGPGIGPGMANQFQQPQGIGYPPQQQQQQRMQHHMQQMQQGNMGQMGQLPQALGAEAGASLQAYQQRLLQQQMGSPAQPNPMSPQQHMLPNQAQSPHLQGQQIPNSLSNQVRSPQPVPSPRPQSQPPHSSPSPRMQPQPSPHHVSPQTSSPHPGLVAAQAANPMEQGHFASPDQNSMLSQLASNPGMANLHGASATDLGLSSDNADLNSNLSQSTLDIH

Consider `C[C@H](N(Cc1ccc(F)cc1)C(=O)CN1C(=O)O[C@@]2(CCc3cc(NC(=O)CCCCCCCCCCCNc4ccc5c(c4)C(=O)N(C4CCC(=O)NC4=O)C5=O)ccc32)C1=O)C(F)(F)F` (stereo partly drawn) [JQAD1, 12-((2-(2,6-dioxopiperidin-3-yl)-1,3-dioxoisoindolin-5-yl)amino)-N-((R)-3′-(2-((4-fluorobenzyl)((S)-1,1,1-trifluoropropan-2-yl)amino)-2-oxoethyl)-2′,4′-dioxo-2,3-dihydrospiro[indene-1,5′-oxazolidin]-5-yl)dodecanamide], for which the body weight result in series [1] (NSG mice) is given as “body weight was maintained over 14 days of treatment”. Further, the survival result in series [1] (log-rank p<0.0001 versus vehicle) is “prolongation of survival; also recorded: prolongs survival”. In series [1] (p<0.05), the xenograft tumor growth entry is “suppression of xenograft tumor growth by day 3 of treatment”. Also, the H3K27ac modification entry in series [2] is “parallel loss of the H3K27ac modification”; in series [2] (listed as (R,S)-JQAD1), “suppressed both H3K27ac and EP300 expression levels”. The “CBP immunostaining of tumors” value in series [3] is on record as “CBP immunostaining was retained”. The “chromatin-bound MYCN” value in series [4] is “loss of both EP300 and chromatin-bound MYCN proteins”. In series [5], the “EP300 protein expression in liver” value was “reduced EP300 protein expression levels in the liver cell nuclei”.
